Reference: PubChem BioAssay AID226 (DTP/NCI, 2004)
Where “and” joins values, the source holds several entries; their conditions need not be identical. Equal entries are not always repeated. Toxic doses and inconclusive results are not listed.

System: B6C3F1 mice, intracerebral ependymoblastoma, median survival T/C
Assay: NCI In Vivo Anticancer Drug Screen. Data for tumor model Ependymoblastoma (intracerebral) in B6C3F1 mice
Details: endpoint: median survival time, higher = longer survival
Experimental: The antitumor activity of compounds was measured in mice bearing transplantable tumors. Survival or tumor size were measured and the results are expressed as the measurement made in the treated group (T) divided by the measurement made in the vehicle treated control group (C). The tumor model used in this assay is Ependymoblastoma (intracerebral) in B6C3F1 mice

[1] = dose: 4.0 mg/kg/injection, schedule: Q01DX005 (ip), vehicle: saline
[2] = dose: 8.0 mg/kg/injection, schedule: Q01DX005 (ip), vehicle: saline

## Nc1nc([Se])c2ncn(C3OC(CO)C(O)C3O)c2n1 (centres undefined)
dose: 4.0 mg/kg/injection, schedule: Q01DX005 (ip), vehicle: saline with Tween-80
  T/C: 113 % of control
[1]
  T/C: 102 % of control
dose: 8.0 mg/kg/injection, schedule: Q01DX005 (ip), vehicle: Klucel (hydroxypropylcellulose) (HPC)
  T/C: 106 % of control
dose: 8.0 mg/kg/injection, schedule: Q01DX005 (ip), vehicle: saline with Tween-80
  T/C: 109 % of control
[2]
  T/C: 95 % of control and 105 % of control and 114 % of control
dose: 16.0 mg/kg/injection, schedule: Q01DX005 (ip), vehicle: Klucel (hydroxypropylcellulose) (HPC)
  T/C: 106 % of control
dose: 16.0 mg/kg/injection, schedule: Q01DX005 (ip), vehicle: saline
  T/C: 102 % of control and 108 % of control
dose: 32.0 mg/kg/injection, schedule: Q01DX005 (ip), vehicle: Klucel (hydroxypropylcellulose) (HPC)
  T/C: 106 % of control
dose: 32.0 mg/kg/injection, schedule: Q01DX005 (ip), vehicle: saline
  T/C: 116 % of control and 121 % of control

## CCC(=O)NC1=C(N2CC2C)C(=O)C(NC(=O)CC)=C(N2CC2C)C1=O (centres undefined)
dose: 0.78 mg/kg/injection, schedule: Q01DX009 (ip), vehicle: Klucel (hydroxypropylcellulose) (HPC)
  T/C: 105 % of control
dose: 1.56 mg/kg/injection, schedule: Q01DX009 (ip), vehicle: Klucel (hydroxypropylcellulose) (HPC)
  T/C: 110 % of control
dose: 3.12 mg/kg/injection, schedule: Q01DX009 (ip), vehicle: Klucel (hydroxypropylcellulose) (HPC)
  T/C: 106 % of control
dose: 6.25 mg/kg/injection, schedule: Q01DX009 (ip), vehicle: Klucel (hydroxypropylcellulose) (HPC)
  T/C: 105 % of control

## NC(=O)N(CCCl)N=O
dose: 1.0 mg/kg/injection, schedule: Q01DX001 (ip), vehicle: saline + alcohol
  T/C: 121 % of control
dose: 4.0 mg/kg/injection, schedule: Q01DX001 (ip), vehicle: saline + alcohol
  T/C: 184 % of control

## Cc1nc(N)nc(N)c1-c1ccc(Cl)c(Cl)c1
dose: 1.25 mg/kg/injection, schedule: Q01DX005 (ip), vehicle: saline
  T/C: 106 % of control
dose: 2.5 mg/kg/injection, schedule: Q01DX005 (ip), vehicle: saline
  T/C: 102 % of control
dose: 5.0 mg/kg/injection, schedule: Q01DX005 (ip), vehicle: saline
  T/C: 120 % of control

## CC(=O)CC(c1ccccc1)c1c(O)c2ccccc2oc1=O (centres undefined)
dose: 0.05 mg/kg/injection, schedule: Q01DX005 (ip), vehicle: Klucel (hydroxypropylcellulose) (HPC)
  T/C: 113 % of control
dose: 0.1 mg/kg/injection, schedule: Q01DX005 (ip), vehicle: Klucel (hydroxypropylcellulose) (HPC)
  T/C: 100 % of control and 108 % of control
dose: 0.2 mg/kg/injection, schedule: Q01DX005 (ip), vehicle: Klucel (hydroxypropylcellulose) (HPC)
  T/C: 105 % of control and 110 % of control
dose: 0.4 mg/kg/injection, schedule: Q01DX005 (ip), vehicle: Klucel (hydroxypropylcellulose) (HPC)
  T/C: 98 % of control and 104 % of control
dose: 0.8 mg/kg/injection, schedule: Q01DX005 (ip), vehicle: Klucel (hydroxypropylcellulose) (HPC)
  T/C: 101 % of control and 88 % of control
dose: 1.6 mg/kg/injection, schedule: Q01DX005 (ip), vehicle: Klucel (hydroxypropylcellulose) (HPC)
  T/C: 98 % of control

## Nc1n[nH]c(N)n1
dose: 128.0 mg/kg/injection, schedule: Q01DX005 (ip), vehicle: saline
  T/C: 93 % of control and 88 % of control
dose: 256.0 mg/kg/injection, schedule: Q01DX005 (ip), vehicle: saline
  T/C: 95 % of control and 100 % of control
dose: 512.0 mg/kg/injection, schedule: Q01DX005 (ip), vehicle: saline
  T/C: 92 % of control and 103 % of control
dose: 1024.0 mg/kg/injection, schedule: Q01DX005 (ip), vehicle: saline
  T/C: 118 % of control and 87 % of control

## CN(C)CCCNc1c2ccccc2nc2cccc([N+](=O)[O-])c12
dose: 0.06 mg/kg/injection, schedule: Q01DX001 (oral), vehicle: saline
  T/C: 102 % of control
dose: 0.06 mg/kg/injection, schedule: Q01DX005 (ip), vehicle: saline
  T/C: 103 % of control and 105 % of control and 112 % of control
dose: 0.12 mg/kg/injection, schedule: Q01DX001 (oral), vehicle: saline
  T/C: 98 % of control
dose: 0.12 mg/kg/injection, schedule: Q01DX005 (ip), vehicle: saline
  T/C: 92 % of control
dose: 0.13 mg/kg/injection, schedule: Q01DX005 (ip), vehicle: saline
  T/C: 102 % of control
dose: 0.25 mg/kg/injection, schedule: Q01DX001 (oral), vehicle: saline
  T/C: 103 % of control
dose: 0.5 mg/kg/injection, schedule: Q01DX001 (oral), vehicle: saline
  T/C: 100 % of control
dose: 1.0 mg/kg/injection, schedule: Q01DX001 (oral), vehicle: saline
  T/C: 108 % of control
dose: 2.0 mg/kg/injection, schedule: Q01DX001 (oral), vehicle: saline
  T/C: 108 % of control
dose: 4.0 mg/kg/injection, schedule: Q01DX001 (oral), vehicle: saline
  T/C: 103 % of control
dose: 16.0 micrograms/kg/injection, schedule: Q01DX005 (ip), vehicle: saline
  T/C: 100 % of control and 110 % of control
dose: 32.0 micrograms/kg/injection, schedule: Q01DX005 (ip), vehicle: saline
  T/C: 100 % of control and 102 % of control
dose: 63.0 micrograms/kg/injection, schedule: Q01DX005 (ip), vehicle: saline
  T/C: 97 % of control and 104 % of control
dose: 125.0 micrograms/kg/injection, schedule: Q01DX005 (ip), vehicle: saline
  T/C: 100 % of control and 106 % of control

## CCC(C)Sc1nc(N)nc2c1ncn2C1OC(CO)C(O)C1O (centres undefined)
dose: 37.5 mg/kg/injection, schedule: Q01DX005 (ip), vehicle: Klucel (hydroxypropylcellulose) (HPC)
  T/C: 97 % of control and 119 % of control
dose: 75.0 mg/kg/injection, schedule: Q01DX005 (ip), vehicle: Klucel (hydroxypropylcellulose) (HPC)
  T/C: 113 % of control and 116 % of control
dose: 150.0 mg/kg/injection, schedule: Q01DX005 (ip), vehicle: Klucel (hydroxypropylcellulose) (HPC)
  T/C: 115 % of control
dose: 300.0 mg/kg/injection, schedule: Q01DX005 (ip), vehicle: Klucel (hydroxypropylcellulose) (HPC)
  T/C: 95 % of control and 113 % of control

## CCCCN(C)N=Nc1ccc([N+](=O)[O-])cc1C(N)=O
dose: 32.0 mg/kg/injection, schedule: Q01DX005 (ip), vehicle: saline with Tween-80
  T/C: 114 % of control
dose: 128.0 mg/kg/injection, schedule: Q01DX005 (ip), vehicle: saline with Tween-80
  T/C: 171 % of control
dose: 256.0 mg/kg/injection, schedule: Q01DX005 (ip), vehicle: saline with Tween-80
  T/C: 158 % of control

## CO[C@H]1C[C@@H]2CC[C@@H](C)[C@@](O)(O2)C(=O)C(=O)N2CCCC[C@H]2C(=O)O[C@H]([C@H](C)C[C@@H]2CC[C@@H](O)[C@H](OC)C2)CC(=O)[C@H](C)C=C(C)[C@@H](O)[C@@H](OC)C(=O)[C@H](C)C[C@H](C)/C=C/C=C/C=C1C
dose: 3.12 mg/kg/injection, schedule: Q01DX009 (ip), vehicle: clinical formulation
  T/C: 118 % of control
dose: 6.25 mg/kg/injection, schedule: Q01DX005 (ip), vehicle: saline with Tween-80
  T/C: 113 % of control
dose: 12.5 mg/kg/injection, schedule: Q01DX009 (ip), vehicle: gum acacia
  T/C: 202 % of control
dose: 25.0 mg/kg/injection, schedule: Q01DX005 (oral), vehicle: saline with Tween-80
  T/C: 106 % of control
dose: 25.0 mg/kg/injection, schedule: Q01DX009 (ip), vehicle: clinical formulation
  T/C: 156 % of control
dose: 25.0 mg/kg/injection, schedule: Q01DX009 (ip), vehicle: gum acacia
  T/C: 198 % of control
dose: 50.0 mg/kg/injection, schedule: Q01DX005 (oral), vehicle: saline with Tween-80
  T/C: 107 % of control and 108 % of control
dose: 50.0 mg/kg/injection, schedule: Q01DX009 (ip), vehicle: clinical formulation
  T/C: 152 % of control and 156 % of control
dose: 50.0 mg/kg/injection, schedule: Q01DX009 (ip), vehicle: gum acacia
  T/C: 177 % of control
dose: 100.0 mg/kg/injection, schedule: Q01DX005 (oral), vehicle: saline with Tween-80
  T/C: 100 % of control and 107 % of control
dose: 100.0 mg/kg/injection, schedule: Q01DX009 (ip), vehicle: clinical formulation
  T/C: 162 % of control and 167 % of control
dose: 100.0 mg/kg/injection, schedule: Q01DX009 (ip), vehicle: gum acacia
  T/C: 185 % of control
dose: 200.0 mg/kg/injection, schedule: Q01DX005 (ip), vehicle: saline with Tween-80
  T/C: 113 % of control and 193 % of control and 207 % of control
dose: 200.0 mg/kg/injection, schedule: Q01DX005 (oral), vehicle: saline with Tween-80
  T/C: 103 % of control and 108 % of control
dose: 400.0 mg/kg/injection, schedule: Q01DX005 (oral), vehicle: saline with Tween-80
  T/C: 108 % of control and 119 % of control
dose: 400.0 mg/kg/injection, schedule: Q01DX009 (ip), vehicle: gum acacia
  T/C: 198 % of control
dose: 800.0 mg/kg/injection, schedule: Q01DX005 (oral), vehicle: saline with Tween-80
  T/C: 124 % of control

## CCN(CC)c1ccc2cc3ccc(=[N+](CC)CC)cc-3oc2c1
dose: 2.0 mg/kg/injection, schedule: Q01DX005 (ip), vehicle: saline
  T/C: 110 % of control
[1]
  T/C: 90 % of control
[2]
  T/C: 93 % of control
